Type in all cases: biochemical
Assay [1] deals with T1, HDAC6 enzyme (Homo sapiens, UniProt Q9UBN7).
T1 construct: transducing full length HDAC1 and HDAC6 genes into Sf-9 insect cells; GST; purchased SignalChem; host or cells: Sf-9 insect cells
T1 sequence (Q9UBN7 1-1215): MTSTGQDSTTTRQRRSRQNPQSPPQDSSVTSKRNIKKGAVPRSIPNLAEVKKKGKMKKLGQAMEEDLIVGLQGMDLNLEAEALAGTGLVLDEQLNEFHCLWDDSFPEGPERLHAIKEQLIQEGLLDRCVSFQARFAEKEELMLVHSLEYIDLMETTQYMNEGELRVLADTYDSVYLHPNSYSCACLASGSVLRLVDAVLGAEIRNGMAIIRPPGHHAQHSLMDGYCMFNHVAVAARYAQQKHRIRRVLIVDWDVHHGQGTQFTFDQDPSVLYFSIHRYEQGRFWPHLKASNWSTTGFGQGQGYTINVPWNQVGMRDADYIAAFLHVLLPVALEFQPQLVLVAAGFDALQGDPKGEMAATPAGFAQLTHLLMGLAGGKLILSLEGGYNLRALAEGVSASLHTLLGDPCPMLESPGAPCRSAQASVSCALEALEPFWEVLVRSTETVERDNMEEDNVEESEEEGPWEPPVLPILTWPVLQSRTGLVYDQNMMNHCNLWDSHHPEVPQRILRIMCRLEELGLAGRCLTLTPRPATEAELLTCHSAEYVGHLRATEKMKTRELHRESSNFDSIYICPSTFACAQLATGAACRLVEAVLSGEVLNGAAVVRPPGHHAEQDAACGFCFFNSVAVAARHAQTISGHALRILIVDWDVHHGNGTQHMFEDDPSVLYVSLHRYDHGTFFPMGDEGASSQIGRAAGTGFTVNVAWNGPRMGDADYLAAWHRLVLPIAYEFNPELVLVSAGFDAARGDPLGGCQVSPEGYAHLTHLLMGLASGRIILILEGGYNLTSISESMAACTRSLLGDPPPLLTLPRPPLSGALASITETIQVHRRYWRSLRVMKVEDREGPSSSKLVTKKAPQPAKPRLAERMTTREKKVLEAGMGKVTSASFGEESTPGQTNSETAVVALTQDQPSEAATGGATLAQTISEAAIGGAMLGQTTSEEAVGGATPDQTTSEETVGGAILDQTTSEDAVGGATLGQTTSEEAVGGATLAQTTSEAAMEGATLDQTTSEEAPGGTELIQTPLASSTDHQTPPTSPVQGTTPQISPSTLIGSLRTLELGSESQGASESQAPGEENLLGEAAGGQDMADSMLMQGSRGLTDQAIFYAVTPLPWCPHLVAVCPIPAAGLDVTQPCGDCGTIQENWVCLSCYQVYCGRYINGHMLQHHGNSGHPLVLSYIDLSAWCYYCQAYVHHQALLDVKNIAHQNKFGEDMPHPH
The assay can be described thus: HDAC1/6 Enzyme Inhibitory Assay (HDAC-Glo I/II Assay kit), HDAC6. Particulars: 1 μM test compound; wells without enzyme = 100% inhibition; read-out: HDAC6 inhibitory rate (%) (1 μM). The gist of the method:
(§1)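 Luminescence readout (HDAC-Glo I/II) after 20 min RT reaction of GST-purified full-length HDAC1 or HDAC6 (Sf-9 expressed) with substrate-developer; enzyme and compound preincubated 60 min RT; buffer 24 mM Tris-HCl pH 7.5, 0.6 mM glutathione, 0.01% Tween-20; no-enzyme wells = 100% inhibition.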

Assay [2] has as its target T2, HDAC1 enzyme (Homo sapiens, UniProt Q13547).
T2 construct: transducing full length HDAC1 and HDAC6 genes into Sf-9 insect cells; GST; purchased SignalChem; host or cells: Sf-9 insect cells
In words: HDAC1/6 Enzyme Inhibitory Assay (HDAC-Glo I/II Assay kit), HDAC1. Particulars: 1 μM test compound; wells without enzyme = 100% inhibition; read-out: HDAC1 inhibitory rate (%) (1 μM). The gist of the method:
as §1

Assay [3] addresses T3, HDAC9 enzyme (Homo sapiens, UniProt Q9UKV0).
T3 construct: transducing full length HDAC9 gene into Sf-9 insect cells; made in house; host or cells: Sf-9 insect cells
The assay can be described thus: HDAC9 Enzyme Inhibitory Assay (HDAC-Glo class IIa). Particulars: 1 μM test compound; wells without enzyme = 100% inhibition; read-out: HDAC9 inhibitory rate (%) (1 μM). Put shortly:
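Luminescent HDAC-Glo class IIa readout after a 20 min room-temperature reaction; relative inhibition referenced to enzyme-free wells as 100%. Test compound first preincubated 60 min with Sf-9-expressed, Ni-NTA-purified full-length HDAC9 in pH 7.5 Tris buffer containing 135 mM NaCl, 0.6 mM glutathione and 0.01% Tween-20.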

T3 sequence (Q9UKV0 whole entry, species assumed): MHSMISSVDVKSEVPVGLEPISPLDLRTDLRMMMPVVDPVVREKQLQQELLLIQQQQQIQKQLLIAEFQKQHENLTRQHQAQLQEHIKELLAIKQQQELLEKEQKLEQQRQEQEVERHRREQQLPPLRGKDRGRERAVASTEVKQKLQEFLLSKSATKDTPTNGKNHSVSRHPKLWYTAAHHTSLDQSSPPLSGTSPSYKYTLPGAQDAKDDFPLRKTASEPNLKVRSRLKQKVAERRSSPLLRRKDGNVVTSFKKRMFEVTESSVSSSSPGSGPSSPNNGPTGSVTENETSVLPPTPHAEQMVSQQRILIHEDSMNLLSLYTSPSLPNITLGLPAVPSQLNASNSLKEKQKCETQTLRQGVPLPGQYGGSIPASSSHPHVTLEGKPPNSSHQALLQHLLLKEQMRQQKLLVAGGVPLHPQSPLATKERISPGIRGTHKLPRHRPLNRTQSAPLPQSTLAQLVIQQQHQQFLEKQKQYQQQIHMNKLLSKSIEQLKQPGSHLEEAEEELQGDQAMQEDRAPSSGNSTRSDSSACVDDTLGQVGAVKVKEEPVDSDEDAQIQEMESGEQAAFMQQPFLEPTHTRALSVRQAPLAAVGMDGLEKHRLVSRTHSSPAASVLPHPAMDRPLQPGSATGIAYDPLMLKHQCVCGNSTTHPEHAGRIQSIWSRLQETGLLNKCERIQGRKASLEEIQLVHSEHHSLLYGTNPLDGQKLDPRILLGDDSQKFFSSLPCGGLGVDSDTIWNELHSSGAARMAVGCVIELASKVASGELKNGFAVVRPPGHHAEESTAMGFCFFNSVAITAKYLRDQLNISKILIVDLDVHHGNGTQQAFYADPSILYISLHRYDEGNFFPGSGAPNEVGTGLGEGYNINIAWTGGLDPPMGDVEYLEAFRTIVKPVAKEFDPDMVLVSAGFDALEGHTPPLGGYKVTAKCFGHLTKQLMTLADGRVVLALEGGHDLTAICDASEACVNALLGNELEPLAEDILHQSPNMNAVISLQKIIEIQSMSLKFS
T2 sequence (Q13547 whole entry): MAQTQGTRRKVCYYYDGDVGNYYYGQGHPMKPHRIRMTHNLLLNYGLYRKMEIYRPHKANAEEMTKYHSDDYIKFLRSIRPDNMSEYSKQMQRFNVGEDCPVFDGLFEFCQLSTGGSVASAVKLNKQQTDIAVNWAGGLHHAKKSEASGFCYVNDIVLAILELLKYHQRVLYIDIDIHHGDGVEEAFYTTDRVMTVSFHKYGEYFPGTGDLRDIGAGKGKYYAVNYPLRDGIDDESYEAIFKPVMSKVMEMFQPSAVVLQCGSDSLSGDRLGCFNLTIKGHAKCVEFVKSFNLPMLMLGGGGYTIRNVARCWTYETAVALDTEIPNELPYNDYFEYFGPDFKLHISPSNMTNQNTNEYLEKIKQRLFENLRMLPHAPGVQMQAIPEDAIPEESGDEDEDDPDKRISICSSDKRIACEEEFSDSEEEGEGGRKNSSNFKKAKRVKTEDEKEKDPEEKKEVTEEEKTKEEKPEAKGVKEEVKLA

For `NC(=O)N1CC[C@@H](N2Cc3ccc(-c4noc(C(F)(F)F)n4)cc3C2=O)[C@H](c2ccccc2)C1` [Example 43, (3R,4R)-4-(1-oxo-6-(5-(trifluoromethyl)-1,2,4-oxadiazol-3-yl)-1,3-dihydro-2H-isoindol-2-yl)-3-phenylpiperidine-1-carboxamide], the inhibition at 1 µM in assay [1] was 99%; in assay [2], 90%; in assay [3], 96%.

`O=C(c1ccccc1)N1CCCC(N2Cc3ncc(-c4noc(C(F)(F)F)n4)cc3C2=O)C1` (stereo not drawn) [Example 40, 6-(1-benzoylpiperidin-3-yl)-3-(5-(trifluoromethyl)-1,2,4-oxadiazol-3-yl)-6,7-dihydro-5H-pyrrolo[3,4-b]pyridin-5-one]: the inhibition at 1 µM came to 95% in assay [1], 56% in assay [2] and 97% in assay [3].

Regarding `CC(=O)N1CCC(N2Cc3ncc(-c4noc(C(F)(F)F)n4)cc3C2=O)CC1` [Example 38, 6-(1-acetylpiperidin-4-yl)-3-(5-(trifluoromethyl)-1,2,4-oxadiazol-3-yl)-6,7-dihydro-5H-pyrrolo[3,4-b]pyridin-5-one], the inhibition at 1 µM came to 90% in assay [1], 25% in assay [2] and 82% in assay [3].

As for `CC1CC1C(=O)N[C@@H]1CCCC[C@H]1N1Cc2ccc(-c3noc(C(F)(F)F)n3)cc2C1=O` (stereo partly drawn) [Example 102, 2-methyl-N-((1R,2R)-2-(1-oxo-6-(5-(trifluoromethyl)-1,2,4-oxadiazo-3-yl)-1,3-dihydro-2H-isoindol-2-yl)cyclohexyl) cyclopropanecarboxamide], the values for the inhibition at 1 µM in assay [1], in assay [2] and in assay [3] were 99%, 7% and 52%, respectively.

Regarding `O=C(N[C@H]1CCOC[C@@H]1N1Cc2ccc(-c3noc(C(F)(F)F)n3)cc2C1=O)[C@H]1CC1(F)F` [Example 202, (1R)-2,2-difluoro-N-((3R,4S)-3-(1-oxo-6-(5-(trifluoromethyl)-1,2,4-oxadiazol-3-yl)-1,3-dihydro-2H-isoindol-2-yl)tetrahydro-2H-pyran-4-yl)cyclopropanecarboxamide], the inhibition at 1 µM in assay [1] amounted to 99%; in assay [2], 13%; in assay [3], 59%.

In the case of `CC1(C(=O)N[C@@H]2CCCC[C@@H]2N2Cc3ccc(-c4noc(C(F)(F)F)n4)cc3C2=O)COC1` (relative stereo) [Example 200, 3-methyl-N-(cis-2-(1-oxo-6-(5-(trifluoromethyl)-1,2,4-oxadiazol-3-yl)-1,3-dihydro-2H-isoindol-2-yl)cyclohexyl)oxetane-3-carboxamide], the results for the inhibition at 1 µM in assay [1], in assay [2] and in assay [3] were 96%, 35% and 85%, respectively.

For the compound `CN(C)C(=O)c1ccccc1N1Cc2ccc(-c3noc(C(F)(F)F)n3)cc2C1=O` [Example 188, N,N-dimethyl-2-(1-oxo-6-(5-(trifluoromethyl)-1,2,4-oxadiazol-3-yl)-1,3-dihydro-2H-isoindol-2-yl)benzamide], the inhibition at 1 µM in assay [1] came out at 95%; in assay [2], 10%; in assay [3] it was 45%.

As for `Cn1cc(C(=O)N[C@@H]2CCCC[C@H]2N2Cc3ccc(-c4noc(C(F)(F)F)n4)cc3C2=O)cn1` [Example 112, 1-methyl-N-((1R,2R)-2-(1-oxo-6-(5-(trifluoromethyl)-1,2,4-oxadiazol-3-yl)-1,3-dihydro-2H-isoindol-2-yl)cyclohexyl)-1H-pyrazole-4-carboxamide], the inhibition at 1 µM in assay [1] worked out at 96%; in assay [2], 13%; in assay [3], 57%.

Take `O=C(N[C@@H]1COCC[C@H]1N1Cc2ccc(-c3noc(C(F)(F)F)n3)cc2C1=O)[C@H]1CC1(F)F` [Example 150, (1R)-2,2-difluoro-N-((3S,4R)-4-(1-oxo-6-(5-(trifluoromethyl)-1,2,4-oxadiazol-3-yl)-1,3-dihydro-2H-isoindol-2-yl)tetrahydro-2H-pyran-3-yl)cyclopropanecarboxamide]: the inhibition at 1 µM in assay [1] amounted to 100%; in assay [2] it was 13%; in assay [3], 85%.
